# Experimental data: patent publication US6825340B2, “Methods and reagents for inactivating ribonucleases” (Ambion, Inc., priority 1998, dated 2004)
# Entries after “also recorded” stand apart in the source; their conditions may differ.
# Experiments:
# [1] = target: T1, SP6 RNA polymerase (Enterobacteria phage SP6, UniProt P06221); test: In vitro transcription reaction (MAXIscript kit), UTP[α-32P] incorporation; type: biochemical; conditions: 20 mM reducing reagent
# T1 construct: purchased Ambion, Inc
# T1 sequence (P06221 1-874): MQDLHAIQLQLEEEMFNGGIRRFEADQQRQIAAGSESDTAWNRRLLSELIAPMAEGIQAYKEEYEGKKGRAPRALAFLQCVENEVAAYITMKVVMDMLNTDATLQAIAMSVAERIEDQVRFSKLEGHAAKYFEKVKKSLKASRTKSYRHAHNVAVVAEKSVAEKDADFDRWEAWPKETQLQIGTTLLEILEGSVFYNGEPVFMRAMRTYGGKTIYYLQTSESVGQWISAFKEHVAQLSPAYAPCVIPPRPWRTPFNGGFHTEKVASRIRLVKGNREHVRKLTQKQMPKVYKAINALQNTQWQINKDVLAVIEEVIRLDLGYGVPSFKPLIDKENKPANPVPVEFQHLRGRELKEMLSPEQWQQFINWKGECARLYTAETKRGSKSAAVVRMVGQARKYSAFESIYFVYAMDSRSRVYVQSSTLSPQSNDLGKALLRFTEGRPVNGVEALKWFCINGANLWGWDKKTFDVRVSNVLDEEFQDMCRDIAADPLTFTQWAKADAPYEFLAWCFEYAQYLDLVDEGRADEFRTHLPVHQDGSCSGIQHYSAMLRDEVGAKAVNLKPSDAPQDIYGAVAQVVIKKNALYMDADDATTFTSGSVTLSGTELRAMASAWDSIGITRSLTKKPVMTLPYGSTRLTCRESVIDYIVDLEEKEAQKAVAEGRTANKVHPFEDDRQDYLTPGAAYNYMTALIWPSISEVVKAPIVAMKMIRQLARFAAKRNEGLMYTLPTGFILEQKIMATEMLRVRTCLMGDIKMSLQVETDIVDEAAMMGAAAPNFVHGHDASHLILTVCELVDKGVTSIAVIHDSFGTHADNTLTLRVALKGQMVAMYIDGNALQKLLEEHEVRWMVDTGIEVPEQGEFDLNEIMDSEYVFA
# Protocol: (§1) FIG. 3. […] Transcriptions were performed with T7, T3 and SP6 RNA polymerase in the presence and absence of 20 mM DTT. For each RNA polymerase reaction, pTRI-Xef DNA was the template and UTP[α^32P] was included to measure the efficiency of transcription. Duplicates were performed for each reaction. TCA precipitations were performed on each transcription reaction to measure the percent of the UTP[α^32P] incorporated into RNA.
# (§2) The transcription reactions were based on the MAXIscript™ transcription kit (Ambion, Inc.). The following were assembled with or without 20 mM reducing reagent in a final volume of 18 μl: NTPs (0.5 mM each), 1 μg linearized DNA template, 2 μl 10 × transcription buffer, and 0.2 μl UTP [α-^32P] (800 Ci/mmol). The reaction mixtures were incubated 60° C. for 10 minutes and then 2 μl of the either SP6, T7 or T3 RNA polymerase (10 units/μl) were added to the reactions, incubated 30° C. for 60 minutes and then TCA precipitated to assess the incorporation of the radioactive label.
# [2] = target: T2, T3 RNA polymerase (Enterobacteria phage T3, UniProt P07659); test: as above; type: biochemical; conditions: 20 mM reducing reagent
# T2 construct: purchased Ambion, Inc
# Protocol: as §1, §2
# [3] = target: T3, T7 RNA polymerase (Escherichia phage T7, UniProt P00573); test: as above; type: biochemical; conditions: 20 mM reducing reagent
# T3 construct: purchased Ambion, Inc
# Protocol: as §1, §2
# [4] = system: unknown RNase in psoralen biotin; test: Integrity of psoralen biotin labeled Millennium Markers after 37° C., 16 hours; type: biochemical; conditions: 5 mM DTT; 90° C. for 10 minutes; then 37° C. for 16 hours
# Protocol: The Millennium™ Markers (Ambion, Inc.) are a set of RNA size markers from 0.5 to 9 kb in length. They are used for determining the length of an unknown RNA. These markers were being labeled with biotin using a psoralen biotin labeling procedure so that they could be detected non-isotopically on a nylon membrane. However, if the Millennium™Markers were incubated at 37° C. for 16 hours after labeling with the psoralen biotin, they were degraded.
# [5] = target: T4, RNase A (Bos taurus, UniProt P61823); conditions: RNase A 10 μg/ml; 4 mM DTT; 4° C. for 20 minutes; cited from earlier work
# T4 sequence (P61823 27-150): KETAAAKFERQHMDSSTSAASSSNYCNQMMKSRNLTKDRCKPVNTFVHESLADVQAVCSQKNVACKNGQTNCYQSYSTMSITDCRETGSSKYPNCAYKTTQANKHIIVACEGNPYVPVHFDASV
# T2 sequence (P07659 whole entry): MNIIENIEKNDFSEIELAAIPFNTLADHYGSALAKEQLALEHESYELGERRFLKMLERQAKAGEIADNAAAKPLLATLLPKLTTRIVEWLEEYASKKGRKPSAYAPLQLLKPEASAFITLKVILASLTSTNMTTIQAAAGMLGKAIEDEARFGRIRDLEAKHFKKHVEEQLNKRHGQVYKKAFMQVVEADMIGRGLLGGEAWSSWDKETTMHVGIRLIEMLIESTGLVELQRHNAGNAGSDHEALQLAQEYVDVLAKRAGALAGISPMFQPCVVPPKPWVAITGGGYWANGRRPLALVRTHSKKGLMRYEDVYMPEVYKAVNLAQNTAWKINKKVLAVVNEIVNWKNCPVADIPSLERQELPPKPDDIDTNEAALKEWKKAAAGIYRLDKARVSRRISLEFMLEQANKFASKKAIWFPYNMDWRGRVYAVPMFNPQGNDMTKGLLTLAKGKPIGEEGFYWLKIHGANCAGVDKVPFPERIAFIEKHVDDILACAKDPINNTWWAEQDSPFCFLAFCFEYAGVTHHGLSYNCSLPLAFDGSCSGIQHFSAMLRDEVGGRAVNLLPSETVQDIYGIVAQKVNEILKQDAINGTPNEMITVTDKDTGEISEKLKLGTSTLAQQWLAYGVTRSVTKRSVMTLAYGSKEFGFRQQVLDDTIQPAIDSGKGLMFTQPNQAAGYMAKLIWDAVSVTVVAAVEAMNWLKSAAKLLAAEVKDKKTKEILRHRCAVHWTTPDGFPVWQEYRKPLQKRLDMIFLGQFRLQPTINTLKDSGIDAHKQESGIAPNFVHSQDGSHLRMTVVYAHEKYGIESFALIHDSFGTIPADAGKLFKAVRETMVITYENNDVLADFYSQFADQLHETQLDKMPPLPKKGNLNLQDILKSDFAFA
# T3 sequence (P00573 whole entry): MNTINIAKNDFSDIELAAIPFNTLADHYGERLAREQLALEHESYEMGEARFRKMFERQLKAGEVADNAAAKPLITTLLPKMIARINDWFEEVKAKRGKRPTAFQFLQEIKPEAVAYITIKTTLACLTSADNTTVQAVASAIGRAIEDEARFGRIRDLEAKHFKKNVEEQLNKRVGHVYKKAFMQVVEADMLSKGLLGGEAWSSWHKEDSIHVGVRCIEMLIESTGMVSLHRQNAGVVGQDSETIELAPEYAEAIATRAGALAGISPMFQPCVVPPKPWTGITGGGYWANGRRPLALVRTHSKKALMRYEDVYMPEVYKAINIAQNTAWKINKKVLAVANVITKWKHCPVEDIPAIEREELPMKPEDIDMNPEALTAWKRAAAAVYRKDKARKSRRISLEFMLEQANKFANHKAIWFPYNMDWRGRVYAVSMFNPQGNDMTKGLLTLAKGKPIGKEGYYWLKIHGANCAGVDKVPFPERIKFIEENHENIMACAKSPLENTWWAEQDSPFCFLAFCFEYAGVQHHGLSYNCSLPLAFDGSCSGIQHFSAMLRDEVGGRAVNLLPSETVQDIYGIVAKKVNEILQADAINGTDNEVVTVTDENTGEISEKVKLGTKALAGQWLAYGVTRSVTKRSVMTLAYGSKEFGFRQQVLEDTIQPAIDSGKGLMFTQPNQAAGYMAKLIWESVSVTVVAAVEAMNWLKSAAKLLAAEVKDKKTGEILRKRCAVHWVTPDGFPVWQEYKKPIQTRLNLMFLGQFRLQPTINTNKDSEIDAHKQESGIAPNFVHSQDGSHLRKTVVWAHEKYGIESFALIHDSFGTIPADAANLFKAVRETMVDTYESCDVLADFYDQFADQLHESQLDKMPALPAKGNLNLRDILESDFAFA
smiles,measurement,setting,value
"O[C@H](CS)[C@H](O)CS [DTT, dithiothreitol]",inhibition of SP6 RNA polymerase transcription,[1],does not inhibit; also recorded: None of the three polymerases were inhibited
same,inhibition of T3 RNA polymerase transcription,[2],does not inhibit; also recorded: None of the three polymerases were inhibited
same,inhibition of T7 RNA polymerase transcription,[3],does not inhibit; also recorded: None of the three polymerases were inhibited
same,integrity of psoralen biotin labeled Millennium Markers,[4],remained intact
same,"RNase A activity (Boshes, 1970)",[5],inhibited
